# According to EPA's ToxValDB 9.5 (doi:10.2903/j.efsa.2013.3111):
# Key:
# [1] = tested on: Bibionidae; conditions: chronic/long-term; duration: 28 days; other
# [2] = tested on: Colinus virginianus; conditions: acute, oral, mortality
# [3] = tested on: Apis mellifera; conditions: acute; duration: 48 hours; oral; unspecified; mortality
# [4] = tested on: Daphnia magna; conditions: chronic/long-term; duration: 21 days; reproduction
# [5] = tested on: Tagia sp.
# [6] = tested on: Pimephales promelas
# [7] = tested on: Anas platyrhynchos
# [8] = tested on: Rattus norvegicus
# [9] = tested on: Typhlodromus pyri; experiment: LR50; higher = less toxic; conditions: duration: 7 days, mortality
structure (smiles),measurement,setting,value
CC(C)CC(C)c1sccc1NC(=O)c1cn(C)nc1C(F)(F)F (stereo unspecified) [Penthiopyrad],NOAEC,[1],50 mg/kg
same,LD50,[2]; diet,> 1910 mg/kg-day
same,LD50,[2],> 2250 mg/kg-day
same,LD50,[3],> 500 µg/piece
same,NOAEC,[4],471 µg/L
same,LC50,"[5]; acute, duration: 14 days, mortality",> 1000 mg/kg
same,NOEC,"[5]; chronic/long-term, duration: 56 days, reproduction",≥ 48 mg/kg
same,LC50,"[6]; acute, duration: 96 hours, mortality",0.29 µg/mL
same,NOAEC,"[6]; chronic/long-term, duration: 33 days, growth",51 µg/L
same,LOAEL,"[7]; reproductive, reproduction",719 mg/kg-day
same,NOAEL,"[7]; reproductive, reproduction",207 mg/kg-day
same,LC50,"[7]; short-term, oral, feed, no effects",> 5790 mg/kg-day
same,LD50,"[8]; acute, oral, mortality",> 2000 mg/kg
same,NOAEL,"[8]; chronic, body weight",54 mg/kg-day
same,LR50,[9]; acute,238 g/ha
same,LR50,[9]; chronic/long-term,124 g/ha
